ChEMBL document CHEMBL1136034, “Selective urokinase-type plasminogen activator (uPA) inhibitors. Part 1: 2-Pyridinylguanidines” (Bioorg Med Chem Lett, 2002)

How the values were obtained:
[1] = target: T1, Urokinase-type plasminogen activator (Homo sapiens, UniProt P00749); assay: In vitro inhibition of HWMT human urokinase Plasminogen activator.
[2] = target: T2, Plasminogen (Homo sapiens, UniProt P00747); assay: Ability to inhibit human plasmin using Chromozym-PL as substrate at concentration of 1 uM
[3] = target: T3, Tissue-type plasminogen activator (Homo sapiens, UniProt P00750); assay: Ability to inhibit human tissue plasminogen activator stimulator at concentration of 1 uM
Target sequence in this assay (P00750 36-562 limits assumed): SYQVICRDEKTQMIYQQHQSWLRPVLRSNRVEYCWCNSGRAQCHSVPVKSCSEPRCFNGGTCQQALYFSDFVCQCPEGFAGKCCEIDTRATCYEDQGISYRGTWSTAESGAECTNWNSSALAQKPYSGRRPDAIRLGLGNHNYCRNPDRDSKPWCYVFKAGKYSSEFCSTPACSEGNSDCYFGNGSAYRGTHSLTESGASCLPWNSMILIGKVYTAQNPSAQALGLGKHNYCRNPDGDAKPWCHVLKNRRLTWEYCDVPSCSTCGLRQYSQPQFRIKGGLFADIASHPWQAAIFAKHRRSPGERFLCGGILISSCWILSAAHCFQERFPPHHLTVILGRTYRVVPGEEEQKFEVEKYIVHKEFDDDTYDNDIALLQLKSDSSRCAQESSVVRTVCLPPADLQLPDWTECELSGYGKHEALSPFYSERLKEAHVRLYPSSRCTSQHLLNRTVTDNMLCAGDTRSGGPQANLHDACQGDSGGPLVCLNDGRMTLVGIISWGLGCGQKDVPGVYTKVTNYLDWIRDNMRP

[4] = target: T3, Tissue-type plasminogen activator; assay: Ability to inhibit human tissue plasminogen activator stimulator at concentration of 1 mM
Target sequence in this assay (P00750 36-562 limits assumed): as above

[5] = target: T2, Plasminogen; assay: Inhibition of human plasmin with Chromozym-PL at 1 mM
[6] = target: T3, Tissue-type plasminogen activator; assay: Inhibition of human tissue plasminogen activator stimulator at 1 mM
Target sequence in this assay (P00750 36-562 limits assumed): as above

[7] = target: T1, Urokinase-type plasminogen activator; assay: Ability to inhibit microPa (calbiochem) and S-2444 (quadratech) as substrate at concentration of 1 uM
[8] = target: T2, Plasminogen; assay: Ability to inhibit human plasmin using Chromozym-PL as substrate
[9] = target: T3, Tissue-type plasminogen activator; assay: Ability to inhibit human tissue plasminogen activator stimulator at concentration of 30 uM
Target sequence in this assay (P00750 36-562 limits assumed): as above

[10] = target: T1, Urokinase-type plasminogen activator; assay: Ability to inhibit microPa (calbiochem) and S-2444 (quadratech) as substrate at concentration of 30 uM
[11] = target: T1, Urokinase-type plasminogen activator; assay: Ability to inhibit microPa (calbiochem) and S-2444 (quadratech) as substrate at concentration of 100 uM
[12] = target: T3, Tissue-type plasminogen activator; assay: Ability to inhibit human tissue plasminogen activator stimulator at concentration of 100 uM
Target sequence in this assay (P00750 36-562 limits assumed): as above

[13] = target: T2, Plasminogen; assay: Ability to inhibit human plasmin using Chromozym-PL as substrate at concentration of 30 uM
[14] = target: T3, Tissue-type plasminogen activator; assay: Ability to inhibit human tissue plasminogen activator stimulator
Target sequence in this assay (P00750 whole entry): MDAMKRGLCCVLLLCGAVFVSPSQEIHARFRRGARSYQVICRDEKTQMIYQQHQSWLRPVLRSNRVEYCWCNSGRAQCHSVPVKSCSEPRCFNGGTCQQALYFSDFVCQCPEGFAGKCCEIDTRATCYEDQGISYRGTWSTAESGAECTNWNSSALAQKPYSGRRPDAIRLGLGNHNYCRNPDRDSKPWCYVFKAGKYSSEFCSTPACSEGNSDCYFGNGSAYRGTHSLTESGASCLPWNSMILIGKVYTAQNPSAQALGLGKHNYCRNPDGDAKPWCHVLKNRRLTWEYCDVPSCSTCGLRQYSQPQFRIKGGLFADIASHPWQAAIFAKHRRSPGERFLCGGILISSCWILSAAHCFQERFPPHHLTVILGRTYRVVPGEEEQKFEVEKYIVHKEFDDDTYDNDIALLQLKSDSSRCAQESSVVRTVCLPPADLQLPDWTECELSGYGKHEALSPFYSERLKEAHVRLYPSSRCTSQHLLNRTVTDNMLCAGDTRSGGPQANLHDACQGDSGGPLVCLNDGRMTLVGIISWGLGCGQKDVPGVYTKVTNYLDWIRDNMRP

T2 sequence (P00747 97-580 limits assumed): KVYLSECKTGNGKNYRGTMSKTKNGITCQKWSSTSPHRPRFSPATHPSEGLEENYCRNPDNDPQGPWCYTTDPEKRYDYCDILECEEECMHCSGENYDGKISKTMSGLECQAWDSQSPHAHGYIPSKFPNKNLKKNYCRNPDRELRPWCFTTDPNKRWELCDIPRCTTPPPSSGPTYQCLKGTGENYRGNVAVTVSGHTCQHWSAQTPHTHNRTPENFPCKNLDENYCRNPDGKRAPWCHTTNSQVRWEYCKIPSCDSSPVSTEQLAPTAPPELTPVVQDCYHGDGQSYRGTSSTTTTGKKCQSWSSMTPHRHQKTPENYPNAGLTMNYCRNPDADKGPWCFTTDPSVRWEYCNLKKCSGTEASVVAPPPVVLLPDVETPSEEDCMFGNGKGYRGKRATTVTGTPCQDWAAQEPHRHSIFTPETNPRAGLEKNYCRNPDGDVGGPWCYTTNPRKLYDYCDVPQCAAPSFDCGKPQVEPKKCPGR
T2 sequence (P00747 581-810 limits assumed): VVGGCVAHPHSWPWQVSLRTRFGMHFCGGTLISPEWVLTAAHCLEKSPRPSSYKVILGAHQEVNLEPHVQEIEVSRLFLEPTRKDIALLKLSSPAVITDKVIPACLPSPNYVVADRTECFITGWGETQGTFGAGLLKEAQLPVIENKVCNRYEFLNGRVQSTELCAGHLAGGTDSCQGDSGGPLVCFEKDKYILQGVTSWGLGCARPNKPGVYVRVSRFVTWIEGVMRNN

Row | Structure (SMILES) | Ki [1] [µM] | inhibition [5] [%] | inhibition [6] [%] | also measured
1 | N=C(N)Nc1ncc(Br)cc1Cl |  | < 50 | < 50 | 
2 | N=C(N)Nc1cnccn1 |  |  |  | inhibition [7]: < 50%; inhibition [2]: < 50%; inhibition [3]: < 50%
3 | COc1cccnc1N=C(N)N |  |  | < 50 | Ki [8]: < 232 µM
4 | Cc1cccc(N=C(N)N)n1 | 173 | < 50 | < 50 | 
5 | N=C(N)Nc1ccc(Cl)cc1 |  |  |  | inhibition [4]: < 50%; Ki [8]: < 50 µM
6 | NC(N)=Nc1ncc(Cl)cc1Cl | 5.47 |  |  | 
7 | N=C(N)Nc1ncc(C(F)(F)F)cc1Cl |  | < 50 | < 50 | 
8 | N=C(N)Nc1ccncc1 |  |  |  | inhibition [9]: < 50%; Ki [8]: 16.9 µM; inhibition [10]: < 50%
9 | Cc1c(Cl)cnc(N=C(N)N)c1Cl |  |  | < 50 | Ki [8]: 176 µM
10 | Cc1cccnc1N=C(N)N | 37.7 | < 50 |  | inhibition [4]: < 50%
11 | N=C(N)Nc1cc(-c2ccccc2)ccn1 |  | < 50 | 54 | 
12 | N=C(N)Nc1cccnn1 |  |  |  | inhibition [11]: < 50%; inhibition [12]: < 50%; inhibition [13]: < 50%
13 | NC(N)=Nc1ncc(Cl)cc1Br |  |  |  | Ki [14]: 272 µM
14 | NC(N)=Nc1ncccc1O | 147 |  |  | 
15 | N=C(N)Nc1ccncn1 |  |  |  | inhibition [7]: < 50%; inhibition [2]: < 50%; inhibition [3]: < 50%
16 | N=C(N)Nc1cccnc1 |  |  |  | inhibition [7]: < 50%; inhibition [2]: < 50%; inhibition [3]: < 50%
17 | NC(N)=Nc1ncc(Br)cc1Cl | 2.9 |  |  | 

Further lines, with some results ahead:

Row | Ki [1] [µM] | inhibition [5] [%] | inhibition [6] [%] | Structure (SMILES) | also measured
18 | 29.5 |  |  | N=C(N)Nc1ccccn1 | inhibition [2]: < 50%; inhibition [3]: < 50%
19 | 83.8 | < 50 |  | Cc1ccnc(NC(=N)N)c1 | inhibition [4]: < 50%
20 |  | < 50 | < 50 | COc1ccnc(NC(=N)N)c1 | 
21 | 32.3 |  | < 50 | Cc1ccc(NC(=N)N)nc1 | 
22 | 3.13 | < 50 | < 50 | N=C(N)Nc1ccc(Br)cn1 | 
23 | 292 |  |  | N=C(N)Nc1ncccn1 | inhibition [2]: < 50%; inhibition [3]: < 50%
24 |  | < 50 | < 50 | N=C(N)Nc1ccc(Cl)cn1 | 
25 |  | < 50 | < 50 | N=C(N)Nc1ncccc1O | 
26 |  | < 50 | < 50 | N=C(N)Nc1ncc(Cl)cc1Cl | 
27 |  | < 50 |  | N=C(N)Nc1ncc(Cl)cc1Br | 
